Assay results published in ChEMBL document CHEMBL5244200, “MicroRNAs as novel endogenous targets for regulation and therapeutic treatments” (Medchemcomm, 2018).
Blank lines part the entries; values can stand above or below the compound they belong to.

Tests used:
[1] = Inhibition of miR-122 (unknown origin) by luciferase signalling
Huh7 (Homo sapiens) = assay: Inhibition of miR-122 in human Huh7 cells assessed as fold increase at 10 uM by luciferase signal
Hepatitis C virus = assay: Antiviral activity against HCV; assay type: functional, Hepacivirus hominis
[2] = Inhibition of pri-miR-122 (unknown origin) at 10 uM relative to control
[3] = Inhibition of miR-21 in human HeLa cells assessed as inhibition; assay type: cell-based
HeLa = assay: Inhibition of pri-miR-21 in human HeLa cells assessed as reduction in expression level at 10 uM relative to control; assay type: cell-based
[4] = Effect on miR-96 in human MCF7 cells assessed as decrease in expression level at 40 uM relative to control; assay type: functional; set-up: scale not given: the % may be the effect or the level left
MCF7 [5] = assay: Inhibition of miR-21 in human MCF7 cells assessed as fold increase at 10 uM by luciferase signalling assay; assay type: cell-based
MCF7 [6] = assay: Induction of apoptosis human MCF7 cells at 5 uM assessed as fold increase in apoptotic rate; assay type: functional
MCF7 [7] = assay: Inhibition of miR-21 in human MCF7 cells assessed as fold increase in PDCD4 protein level; assay type: cell-based
MCF7 [8] = assay: Inhibition of miR-27a (unknown origin) transfected in human MCF7 cells assessed as fold increase at 20 uM by luciferase assay; assay type: cell-based
[9] = In vivo inhibition of miR-210 in human MDA-MB-231 cells xenografted with SCID mouse assessed as reduction in protein level under hypoxia condition relative to control; assay type: functional; set-up: scale not given: the % may be the effect or the level left
[10] = Inhibition of miR-210 (unknown origin)
[11] = In vivo inhibition of miR-210 in human MDA-MB-231 cells xenografted with SCID mouse assessed as reduction in […] level at 20 pmol relative to control; set-up: scale not given: the % may be the effect or the level left
[12] = Effect on pri-miR-210 in human MDA-MB-231 cells assessed as fold increase at 200 nM; assay type: functional
[13] = Effect on pre-miR-210 in human MDA-MB-231 cells assessed as fold increase at 200 nM; assay type: functional
[14] = Upregulation of GPD1L in human MDA-MB-231 cells assessed as fold increase in expression level; assay type: functional
pre-miR-544 (human) = assay: Effect on pre-miR-544 in human MCF-10A cells assessed as fold increasing level
[15] = Induction of human MDA-MB-231 cells assessed as induces increasing in apoptotic rate by western blot analysis relative to control; assay type: functional
miR-544 (human) = assay: Effect on miR-544 in human MCF-10A cells assessed as reduction in expression level relative to control; set-up: scale not given: the % may be the effect or the level left
HepG2 = assay: Cytotoxicity against human HepG2 cells assessed as reduction in cell viability measured after 24 hrs at 10 uM relative to control; assay type: toxicity, cell-based; conditions: hepg2, 24 h
[16] = Activation of miR-122 (unknown origin) by luciferase assay
[17] = Inhibition of miR-122 (unknown origin)
[18] = Inhibition of mature miR-122 (unknown origin) at 10 uM relative to control
[19] = Activation of miRNA (unknown origin)
HCT-116 = assay: Antiproliferative activity against human HCT-116 cells assessed as reduction in cell viability measured after 72 hrs by MTT assay; assay type: functional, cell-based; conditions: HCT-116, 72 h
[20] = Inhibition of miRNA (unknown origin)
[21] = Inhibition of miRNA (unknown origin) by fluorescence polarization assay
[22] = Inhibition of miR-206 (unknown origin)
[23] = Inhibition of myomiRs (unknown origin)

SMILES: C#CCNC(=O)c1ccc(/N=N/c2ccc(N)cc2)cc1
EC50 [3]: 2000 nM | inhibition (HeLa): 80%

SMILES: CN1CCN(c2ccc3nc(-c4cc(C(C)(C)C)c(OCCCC(=O)NCCCN=[N+]=[N-])c(C(C)(C)C)c4)[nH]c3c2)CC1
Activity [4]: 90%

SMILES: CN[C@@H]1[C@H](O[C@H]2[C@H](O[C@H]3[C@H](O)[C@@H](O)[C@H](N=C(N)N)[C@@H](O)[C@@H]3N=C(N)N)O[C@@H](C)[C@]2(O)C=O)O[C@@H](CO)[C@H](O)[C@H]1O [STREPTOMYCIN]
fold change (FC) (MCF7 [5]): 1.4 | fold change (FC) (MCF7 [6]): 2 | fold change (FC) (MCF7 [7]): 2

SMILES: NC[C@@H]1O[C@H](O[C@H]2[C@@H](O)[C@H](O[C@@H]3[C@@H](O)[C@H](N)C[C@H](N)[C@H]3O[C@H]3O[C@H](CN)[C@@H](O)[C@H](O)[C@H]3N)O[C@@H]2CO)[C@H](N)[C@@H](O)[C@@H]1O
fold change (FC) (MCF7 [8]): 1.2

SMILES: N#Cc1c(N2CCCC2)nc(N)c2c(N)nc(N3CCCC3)cc12
fold change (FC) (pre-miR-544 (human)): 2 | Activity [15]: 60% | Activity (miR-544 (human)): 90%

SMILES: O=C(Nc1ccc2ccccc2c1)c1ccc(Cl)cc1Cl
IC50 [17]: 3000 nM | fold change (FC) (Huh7 (Homo sapiens)): 7.7 | inhibition [18]: 50% | Activity (Hepatitis C virus): 50%

SMILES: CCn1cc(C(=O)O)c(=O)c2cc(F)c(N3CCNCC3)nc21 [ENOXACIN]
EC50 [19]: 30000 nM | EC50 (HCT-116): 124000 nM

SMILES: O=C(O)C1=CC(=C(c2ccc(O)c(C(=O)O)c2)c2ccc(O)c(C(=O)O)c2)C=CC1=O [AURINTRICARBOXYLIC ACID]
IC50 [20]: 470 nM | IC50 [21]: 470 nM

Continued, in another order:

IC50 [1]: 600 nM | inhibition [2]: 90%
SMILES: O=S(=O)(c1ccc2c(c1)CCCN2)N1CCC[C@H]2CCCC[C@@H]21
fold change (FC) (Huh7 (Homo sapiens)): 12.5 | Activity (Hepatitis C virus): 50%

IC50 [10]: 200 nM
SMILES: CN1CCN(c2ccc3nc(-c4ccc5[nH]c(-c6cccc(OCCCC(=O)NCCN=[N+]=[N-])c6)nc5c4)[nH]c3c2)CC1
Activity [9]: 90% | Activity [11]: 75% | fold change (FC) [12]: 3 | fold change (FC) [13]: 2.6 | fold change (FC) [14]: 5

EC50 [16]: 3000 nM
SMILES: CN(C)CCN1C(=O)c2cccc3cccc(c23)C1=O
Activity (HepG2): 80%

IC50 [22]: 5000 nM | IC50 [23]: 2500 nM
SMILES: COC12C(=O)c3ccccc3C(=O)C1C(c1ccccc1)=C2c1ccc(OC(=O)OC(C)(C)C)c2ncccc12 (configuration not stated)
